Laboratory results reported in the supplement of paper PMC9663587.

Assays:
[1] = compound: CC(=O)c1c(C)c2cnc(Nc3ccc(N4CCNCC4)cn3)nc2n(C2CCCC2)c1=O; assay: increase in dead-cell fraction, 72 h; higher = more death;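 further: breast cancer cell lines in 384-well plates, stained with Hoechst plus LIVE/DEAD far red dye and imaged, cells above an LDR intensity threshold counted dead, Hoechst-negative corpses included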
[2] = compound: CCN1CCN(Cc2ccc(Nc3ncc(F)c(-c4cc(F)c5nc(C)n(C(C)C)c5c4)n3)nc2)CC1; assay: as above
[3] = compound: T1, CN(C)C(=O)c1cc2cnc(Nc3ccc(N4CCNCC4)cn3)nc2n1C1CCCC1 [LEE011/Ribociclib]; assay: as above
[4] = compound: T2, CN1CC[C@H](c2c(O)cc(O)c3c(=O)cc(-c4ccccc4Cl)oc23)[C@H](O)C1 [Flavopiridol]; assay: as above
[5] = compound: CC(=O)c1c(C)c2cnc(Nc3ccc(N4CCN(CCOCCOCCOCCNC(=O)COc5cccc6c5C(=O)N(C5CCC(=O)NC5=O)C6=O)CC4)cn3)nc2n(C2CCCC2)c1=O [BSJ-03-123]; assay: GR value, 72 h; higher = faster growth (1 = untreated, <0 = killing);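 further: breast cancer and non-malignant breast epithelial lines, nine half-log doses, viable cells counted by Hoechst and LIVE/DEAD dye imaging versus time-zero plates and DMSO controls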
[6] = compound: CC(=O)c1c(C)c2cnc(Nc3ccc(N4CCNCC4)cn3)nc2n(C2CCCC2)c1=O; assay: as above
[7] = compound: CCN1CCN(Cc2ccc(Nc3ncc(F)c(-c4cc(F)c5nc(C)n(C(C)C)c5c4)n3)nc2)CC1; assay: as above
[8] = compound: CCOc1cc2ncc(C#N)c(Nc3ccc(OCc4ccccn4)c(Cl)c3)c2cc1NC(=O)/C=C/CN(C)C [Neratinib/HKI272]; assay: as above
[9] = compound: CCc1cnn2c(NCc3ccc[n+]([O-])c3)cc(N3CCCC[C@H]3CCO)nc12; assay: as above
[10] = compound: T1, LEE011/Ribociclib; assay: as above
[11] = compound: CN(C)C/C=C/C(=O)Nc1ccc(C(=O)Nc2cccc(Nc3ncc(Cl)c(-c4c[nH]c5ccccc45)n3)c2)cc1 [THZ1]; assay: as above
[12] = compound: T2, Flavopiridol; assay: as above

With MCF10A the “increase in dead-cell fraction” value ([1]; 0.0003162 µM) was 0.0006, the “increase in dead-cell fraction” value ([1]; 0.001 µM) was 0.0003 and the “increase in dead-cell fraction” value ([1]; 0.003162 µM) was -0.0024. The “increase in dead-cell fraction” value ([1]; 0.01 µM) was -0.0041, the “increase in dead-cell fraction” value ([1]; 0.03162 µM) was -0.0059 and the “increase in dead-cell fraction” value ([1]; 0.1 µM) was -0.0084. For the same cell line, the “increase in dead-cell fraction” value ([1]; 0.3162 µM) was -0.0088, the “increase in dead-cell fraction” value ([1]; 1 µM) was -0.0079 and the “increase in dead-cell fraction” value ([1]; 3.162 µM) was -0.005. The “increase in dead-cell fraction” value ([2]; 0.001 µM) was -0.0006, the “increase in dead-cell fraction” value ([2]; 0.003162 µM) was -0.0032 and the “increase in dead-cell fraction” value ([2]; 0.01 µM) was -0.0061. The “increase in dead-cell fraction” value ([2]; 0.03162 µM) was -0.0084, the “increase in dead-cell fraction” value ([2]; 0.1 µM) was -0.0079 and the “increase in dead-cell fraction” value ([2]; 0.3162 µM) was -0.0081. For the same cell line, the “increase in dead-cell fraction” value ([2]; 1 µM) was -0.0035, the “increase in dead-cell fraction” value ([2]; 3.162 µM) was -0.0012 and the “increase in dead-cell fraction” value ([2]; 10 µM) was 0.0346. The “increase in dead-cell fraction” value ([3]; 0.001 µM) was -0.0014, the “increase in dead-cell fraction” value ([3]; 0.003162 µM) was 0.0018 and the “increase in dead-cell fraction” value ([3]; 0.01 µM) was -0.0007. For the same cell line, the “increase in dead-cell fraction” value ([3]; 0.03162 µM) was -0.0008, the “increase in dead-cell fraction” value ([3]; 0.1 µM) was -0.0006 and the “increase in dead-cell fraction” value ([3]; 0.3162 µM) was 0.0001. The “increase in dead-cell fraction” value ([3]; 1 µM) was -0.0005, the “increase in dead-cell fraction” value ([3]; 3.162 µM) was -0.0003 and the “increase in dead-cell fraction” value ([3]; 10 µM) was 0.0032. For the same cell line, the “increase in dead-cell fraction” value ([4]; 0.0001 µM) was 0.0016, the “increase in dead-cell fraction” value ([4]; 0.0003162 µM) was 0 and the “increase in dead-cell fraction” value ([4]; 0.001 µM) was -0.0007. The “increase in dead-cell fraction” value ([4]; 0.003162 µM) was -0.0005, the “increase in dead-cell fraction” value ([4]; 0.01 µM) was 0 and the “increase in dead-cell fraction” value ([4]; 0.03162 µM) was 0.0039. For the same cell line, the “increase in dead-cell fraction” value ([4]; 0.1 µM) was 0.0255, the “increase in dead-cell fraction” value ([4]; 0.3162 µM) was 0.407 and the “increase in dead-cell fraction” value ([4]; 1 µM) was 0.87. For the same cell line, the GR value ([5]; 0.001 µM) was 0.915 GR, the GR value ([5]; 0.003162 µM) was 0.877 GR and the GR value ([5]; 0.01 µM) was 0.81 GR. The GR value ([5]; 0.03162 µM) was 0.76 GR, the GR value ([5]; 0.1 µM) was 0.736 GR and the GR value ([5]; 0.3162 µM) was 0.708 GR. It also gave a GR value ([5]; 1 µM) of 0.577 GR, a GR value ([5]; 3.162 µM) of 0.502 GR and a GR value ([5]; 10 µM) of -0.113 GR. It also gave a GR value ([6]; 0.0003162 µM) of 0.996 GR, a GR value ([6]; 0.001 µM) of 0.999 GR and a GR value ([6]; 0.003162 µM) of 0.979 GR. It also gave a GR value ([6]; 0.01 µM) of 0.939 GR, a GR value ([6]; 0.03162 µM) of 0.852 GR and a GR value ([6]; 0.1 µM) of 0.748 GR. For the same cell line, the GR value ([6]; 0.3162 µM) was 0.653 GR, the GR value ([6]; 1 µM) was 0.582 GR and the GR value ([6]; 3.162 µM) was 0.444 GR. The GR value ([7]; 0.001 µM) was 0.981 GR, the GR value ([7]; 0.003162 µM) was 0.95 GR and the GR value ([7]; 0.01 µM) was 0.882 GR. It also gave a GR value ([7]; 0.03162 µM) of 0.78 GR, a GR value ([7]; 0.1 µM) of 0.665 GR and a GR value ([7]; 0.3162 µM) of 0.543 GR. For the same cell line, the GR value ([7]; 1 µM) was 0.364 GR, the GR value ([7]; 3.162 µM) was 0.255 GR and the GR value ([7]; 10 µM) was 0.159 GR. It also gave a GR value ([8]; 0.0003162 µM) of 1 GR, a GR value ([8]; 0.001 µM) of 1 GR and a GR value ([8]; 0.003162 µM) of 1 GR. It also gave a GR value ([8]; 0.01 µM) of 0.976 GR, a GR value ([8]; 0.03162 µM) of 0.723 GR and a GR value ([8]; 0.1 µM) of 0.496 GR. For the same cell line, the GR value ([8]; 0.3162 µM) was 0.304 GR, the GR value ([8]; 1 µM) was 0.179 GR and the GR value ([8]; 3.162 µM) was 0.099 GR. It also gave a GR value ([9]; 0.0001 µM) of 1.01 GR, a GR value ([9]; 0.0003162 µM) of 1.01 GR and a GR value ([9]; 0.001 µM) of 1.02 GR. For the same cell line, the GR value ([9]; 0.003162 µM) was 1.04 GR, the GR value ([9]; 0.01 µM) was 0.958 GR and the GR value ([9]; 0.03162 µM) was -0.188 GR. The GR value ([9]; 0.1 µM) was -0.226 GR, the GR value ([9]; 0.3162 µM) was -0.223 GR and the GR value ([9]; 1 µM) was -0.223 GR. The GR value ([10]; 0.001 µM) was 0.91 GR, the GR value ([10]; 0.003162 µM) was 0.888 GR and the GR value ([10]; 0.01 µM) was 0.821 GR. For the same cell line, the GR value ([10]; 0.03162 µM) was 0.781 GR, the GR value ([10]; 0.1 µM) was 0.79 GR and the GR value ([10]; 0.3162 µM) was 0.756 GR. The GR value ([10]; 1 µM) was 0.732 GR, the GR value ([10]; 3.162 µM) was 0.665 GR and the GR value ([10]; 10 µM) was 0.434 GR. The GR value ([11]; 0.0001 µM) was 0.995 GR, the GR value ([11]; 0.0003162 µM) was 1.01 GR and the GR value ([11]; 0.001 µM) was 0.985 GR. For the same cell line, the GR value ([11]; 0.003162 µM) was 0.992 GR, the GR value ([11]; 0.01 µM) was 0.896 GR and the GR value ([11]; 0.03162 µM) was 0.69 GR. The GR value ([11]; 0.1 µM) was 0.32 GR, the GR value ([11]; 0.3162 µM) was -0.0551 GR and the GR value ([11]; 1 µM) was -0.563 GR. The GR value ([12]; 0.0001 µM) was 1.01 GR, the GR value ([12]; 0.0003162 µM) was 1.01 GR and the GR value ([12]; 0.001 µM) was 1.03 GR. It also gave a GR value ([12]; 0.003162 µM) of 1.03 GR, a GR value ([12]; 0.01 µM) of 1.04 GR and a GR value ([12]; 0.03162 µM) of 1.03 GR. It also gave a GR value ([12]; 0.1 µM) of 0.822 GR, a GR value ([12]; 0.3162 µM) of -0.322 GR and a GR value ([12]; 1 µM) of -0.67 GR.
